Assay results as given in ChEMBL document CHEMBL3124746, “Triazine Analogues as NS5B Inhibitors for the Treatment of HCV” (ACS Med Chem Lett, 2014).

System: Hepatitis C virus
Assay: Antiviral activity against HCV infected in human HuH7 cells assessed as inhibition of viral replication after 2 days by luciferase reporter gene assay
Assay type: functional, organism-based, Hepacivirus hominis
Conditions: Huh-7, 48 h

SMILES | EC50 [pM]
COC(=O)[C@@H](CCNC(=O)C(=O)Nc1cccc(OC(F)(F)F)c1)NC(=O)c1ccc(Nc2nc(NC3(c4ccc(Cl)cc4)CC3)nc(OCC(F)(F)F)n2)cc1 | 160
CNC(=O)C(=O)NC[C@@H](NC(=O)c1ccc(Nc2nc(NC3(c4ccc(Cl)cc4)CC3)nc(OCC(F)(F)F)n2)cc1)C(=O)O | 690
